test system: genetically sound-sensitive mice (audiogenic seizures); assay: audiogenic seizures test in sound-susceptible mice; assay type: in vivo; conditions: Mus musculus, ip, 1 h; dose producing 50% protection against clonic convulsions relative to control; intraperitoneally 60 minutes before induction of audiogenic seizures (90 dB, 10–20 kHz, 30 seconds); Probit Analysis; read-out: Clonic Convulsion (ED50)
From the text: The potent activity of the compounds of formula (I) or (II), or their pharmaceutically acceptable salts, as anticonvulsants was evidenced by audiogenic seizures test induced in sound-susceptible mice. These examples illustrate the invention without in any way limiting its scope. The objective of the following pharmacological test is to evaluate the anticonvulsant potency of a compound in sound-susceptible mice, a genetic animal model with reflex seizures. In this model of primary generalised epilepsy, seizures are evoked without electrical or chemical stimulation and the seizure types are, at least in part, similar in their clinical phenomenology to seizures occurring in man (Löscher W. & Schmidt D., Epilepsy Res. (1998), 2, p. 145–181; Buchhalter J. R., Epilepsia (1993), 34, S31–S41). The results obtained with the tested compounds of formula (I) and (II) show a strong pharmacological effect (see Table 4).
In order to study the activity of the compounds of formula (I) and (II) including the (S) and (R) forms of ethyl 4-{[1-(aminocarbonyl)propyl]amino}butanoate, as anticonvulsant, the applicant performed out a series of experiments based on the audiogenic seizures test in mice.
The objective of the following pharmacological test is to evaluate the anticonvulsant potency of a compound in sound-susceptible mice, a genetic animal model with reflex seizures. In this model of primary generalised epilepsy, seizures are evoked without electrical or chemical stimulation and the seizure types are, at least in part, similar in their clinical phenomenology to seizures occurring in man (Löscher W. and Schmidt D., Epilepsy Res. (1998), 2, p. 145–181; Buchhalter J. R., Epilepsia (1993), 34, S31–S41).
Male or female genetically sound-sensitive mice (14–28 g; N=10), derived from a DBA (Dilute Brown Agouti) strain originally selected by Dr. Lehmann of the Laboratory of Acoustic Physiology (Paris) and bred in the UCB Pharma Sector husbandry unit since 1978, were used. The experimental design consisted of several groups, one group receiving the vehicle control and the other groups different doses of the test-compound. The compounds were administered intraperitoneally 60 minutes before the induction of audiogenic seizures.
For testing, the animals were placed in small cages, one mouse per cage, in a sound-attenuated chamber. After a period of orientation of 30 seconds, the acoustic stimulus (90 dB, 10–20 kHz) was delivered for 30 seconds via loud speakers positioned above each cage; During this interval, the mice were observed and the presence of the 3 phases of the seizure activity, namely wild running, clonic and tonic convulsions, was recorded. The proportion of mice protected against wild running, clonic and tonic convulsions, respectively, was calculated.
For active compounds, an ED50 value, i.e. the dose producing 50% protection relative to the control group, together with 95% confidence limits, was calculated using a Probit Analysis (SAS/STATR Software, Version 6.09, PROBIT procedure) of the proportions of protected mice for each of the 3 phases of the seizure activity.

**Q.** With `CCCC(CCC)COC(=O)CCCN[C@@H](CC)C(N)=O` [O, 2-propylpentyl 4-{[(1S)-1-(aminocarbonyl)propyl]amino}butanoate] as the compound, how does the ED50 read?
**A.** Its ED50 is 120 µmol/kg.

**Q.** `CC[C@H](NCCCC(=O)OC1CCCC1)C(N)=O` [J, cyclopentyl 4-{[(1S)-1-(aminocarbonyl)propyl]amino}butanoate] was tested. Which ED50 did it give?
**A.** Its ED50 is 340 µmol/kg.

**Q.** Which ED50 does the source give for `CC[C@H](NCCCC(=O)OCc1ccccc1)C(N)=O` [Compound N, benzyl 4-{[(1S)-1-(aminocarbonyl)propyl]amino)butanoate] here?
**A.** Its ED50 is 220 µmol/kg.

**Q.** Which ED50 does the source give for `CCCCOC(=O)CCCN[C@@H](CC)C(N)=O` [K, butyl 4-{[(1S)-1-(aminocarbonyl)propyl]amino}butanoate] here?
**A.** Its ED50 is 1000 µmol/kg.

**Q.** For `CC[C@H](NCCCC(=O)OC(C)C)C(N)=O` [G, isopropyl 4-{[(1S)-1-(aminocarbonyl)propyl]amino}butanoate], which ED50 is on record?
**A.** Its ED50 is 150 µmol/kg.

**Q.** `CCCOC(=O)CCCN[C@@H](CC)C(N)=O` [P, propyl 4-{[(1S)-1-(aminocarbonyl)propyl]amino}butanoate] was tested. Which ED50 did it give?
**A.** The ED50 was 200 µmol/kg.

**Q.** With `CCOC(=O)CCCN[C@@H](CC)C(N)=O` [D, ethyl 4-{[(1S)-1-(aminocarbonyl)propyl]amino}butanoate] as the compound, how does the ED50 read?
**A.** Its ED50 is 68 µmol/kg.

**Q.** With `CC[C@H](NCCCC(=O)OCC(C)C)C(N)=O` [M, isobutyl 4-{[(1S)-1-(aminocarbonyl)propyl]amino}butanoate] as the compound, how does the ED50 read?
**A.** The ED50 was 360 µmol/kg.

**Q.** `CCC(NCCCC(=O)OC(C)(C)C)C(N)=O` [H, tertiobutyl 4-{[(1S)-1-(aminocarbonyl)propyl]amino}butanoate] was tested. Which ED50 did it give?
**A.** The ED50 was 520 µmol/kg.

**Q.** Which ED50 does the source give for `CC[C@H](NCCCC(=O)OC)C(N)=O` [F, methyl 4-{[(1S)-1-(aminocarbonyl)propyl]amino}butanoate] here?
**A.** Its ED50 is 160 µmol/kg.

**Q.** `CCOC(=O)CCCNC(CC)C(N)=O` (racemic) [C, ethyl 4-{[1-(aminocarbonyl)propyl]amino}butanoate] was tested. Which ED50 did it give?
**A.** Its ED50 is 320 µmol/kg.

**Q.** With `CCCCCCCCOC(=O)CCCN[C@@H](CC)C(N)=O` [L, octyl 4-{[(1S)-1-(aminocarbonyl)propyl]amino}butanoate] as the compound, how does the ED50 read?
**A.** Its ED50 is 160 µmol/kg.

**Q.** With `CC[C@H](NCCCC(=O)OCCC12CC3CC(CC(C3)C1)C2)C(N)=O` [I, 2-(1-adamantyl)ethyl 4-{[(1S)-1-(aminocarbonyl)propyl]amino}butanoate] as the compound, how does the ED50 read?
**A.** The ED50 was 130 µmol/kg.

**Q.** How did the ED50 turn out when `CC[C@H](NCCCC(=O)SC(C)C)C(N)=O` [W, S-isopropyl 4-{[(1S)-1-(aminocarbonyl)propyl]amino}butanethioate] was run?
**A.** Its ED50 is 540 µmol/kg.

— patent US7112612B2, “N-alkylated GABA compounds, processes for their preparation and their use as medicaments” (UCB S.A., priority 2000, dated 2006)
